Consider nine compounds from patent US20240294499A1, “TARGETED PROTEIN DEGRADATION USING BIFUNCTIONAL COMPOUNDS THAT BIND UBIQUITIN LIGASE AND TARGET MCL-1 PROTEIN” (Captor Therapeutics S.A., priority 2021, published 2024).

The structures appear in SMILES notation.

In experiment [1] the target is [MCL-1]-[compound of formula (I)]-[CRBN/DDB1] complex (Homo sapiens, UniProt Q07820+Q96SW2). Put plainly: AlphaLISA dose response ternary complex formation assay. As to conditions: for EC50: read-out: AlphaLISA dose response Average pEC50 by molecule (converted). Format: binding. Summed up:
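EC50 comes from dose–response of AlphaLISA luminescence (excitation 680, emission 615 nm), normalised between DMSO background and an internal positive control, with concentrations past the hook point dropped. Ternary complex formed by mixing bead-bound biotin-hMCL-1 and His-CRBN/DDB1 (protein solutions 40 and 200 nM) with compound in 2% DMSO, 30 min, 25 °C.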
For orientation: Bead proximity is the source of the signal in Alpha formats.

A further experiment concerns MV-4-11 cells. Put plainly: Cell viability assay (CellTiter-Glo), MV-4-11. Type of experiment: cell-based. The following applies: 1% FBS; for IC50: Homo sapiens, MV4-11, 24 hours incubation, read-out: Average pIC50 by molecule MV-4-11 (converted). Summed up: (§1)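 OPM-2, MV-4-11 and ARH-77 cells were grown in medium with 1% FBS and treated with compound in 1/3 dilutions from 30 uM (9–12 points, 0.5% DMSO). Viability was read by CellTiter-Glo luminescence after 24 hours and normalized to DMSO control.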

The subject of a further experiment is DMS 114 cells. Put plainly: Cell viability assay (CellTiter-Glo), DMS 114. As to conditions: 72 hours incubation, 10% FBS; for IC50: Homo sapiens, DMS-114, 72 h, read-out: Average pIC50 by molecule DMS 114 (converted). Format: cell-based. The source says:
The effect of various compounds of the invention on the viability of DMS 114 cell line was investigated, using the CTG protocol described below.
DMS 114 cell line is derived from small-cell lung cancer, which is described in the literature as MCL-1 dependent lines [Yasuda Y et al. Cell Death & Disease 2020; 11: 177].
DMS 114 cells were detached with trypsin and then resuspended in growth medium containing 10% FBS and counted. Cell suspension was then adjusted to 5×10^4 cells/ml using growth medium containing 10% FBS. Afterwards, […] were seeded on 384-well plates (50 μl). Plates were then placed in the incubator overnight until treated. Next day, compounds were added using ECHO 555 liquid handler. Compound concentrations used in this assay: 1/3 dilutions starting at 30 uM (9 to 12 points).
After 72 hours of incubation, cell viability was evaluated using CellTiter-Glo Luminescent Cell Viability Assay (Promega, cat #G7572). Luminescence signal was measured using a CLARIOstar Plus Multi-Mode Microplate Reader (574-590 nm).
For orientation: ATP-based viability assays read luminescence as a measure of living cells.

The subject of another experiment is ARH-77 cells. Put plainly: Cell viability assay (CellTiter-Glo), ARH-77. Type of experiment: cell-based. The following applies: 1% FBS; for IC50: Homo sapiens, ARH-77, 24 hours incubation, read-out: Average pIC50 by molecule ARH-77 (converted). Summed up: as §1
Another experiment deals with MCL-1 protein (Homo sapiens, UniProt Q07820). Put plainly: OPM-2 cells: MCL-1 protein degradation, Simple Western. Type of experiment: cell-based. Also on record: endogenous in cells; host or cells: OPM-2. The following applies: OPM-2 cell line, 6 h treatment, 100 nM compound, vs DMSO. An excerpt:
The effect of various compounds of the invention and the reference compounds on MCL-1protein degradation in the OPM-2 cell line was investigated, using the degradation assay protocol below.
OPM-2 cells were maintained in RPMI-1640 medium, supplemented with penicillin/streptomycin and 10% Fetal Bovine Serum (FBS). During the treatment, FBS concentration was reduced to 1%.
Compound stocks were pre-diluted in DMSO and added directly to the cells growth medium (final DMSO concentration: 0.5%).
OPM-2 cells were collected, centrifuged (250 rcf, 5 min), resuspended in a growth medium containing 1% FBS and counted. The cell suspension was then adjusted to 1×10^6 cell/ml using a growth medium containing 1% FBS. Afterwards, 0.5×10^6 cells were seeded on 24-well plates in 0.5 mL of medium per well. Immediately after seeding cells, compounds in appropriate concentrations were added to the cell culture medium.
Following the treatment with the compounds, cells were collected from the plates and suspended in a lysis buffer (2% SDS, 50 mM Tris, pH 8.0, 100 U/ml Pierce Universal Nuclease for Cell Lysis, cOmplete EDTA-free Protease Inhibitor Cocktail) and incubated on ice for 45 min.
The following steps, including sample loading, protein separation, immunoprobing or labelling, washes and detection analysis was performed using Jess from ProteinSimple, an automatic system for analyzing protein levels in cell lysates (12-230 kDa Jess or Wes separation module 8×25 capillaries, protein normalization assay, no. SM-PN01-1). The Protein of Interest was detected using MCL-1 (D35A5) Rabbit monoclonal antibody (Cell Signaling, #5453, LOT: 4). Antibody was diluted in a ratio of 1:100 in Antibody diluent.
[%] of protein reduction is calculated in comparison to the cells treated with DMSO, which stand for 0%.
The results for the 6 h treatment with 100 nM compounds are shown in Table 9, using the following labels: • <20% for 0-19% of MCL-1 protein reduction, • ≥20% for 20-39% of MCL-1 protein reduction, • ≥40% for 40-100% of MCL-1 protein reduction.

[MCL-1]-[compound of formula (I)]-[CRBN/DDB1] complex, sequence (Q07820 whole entry): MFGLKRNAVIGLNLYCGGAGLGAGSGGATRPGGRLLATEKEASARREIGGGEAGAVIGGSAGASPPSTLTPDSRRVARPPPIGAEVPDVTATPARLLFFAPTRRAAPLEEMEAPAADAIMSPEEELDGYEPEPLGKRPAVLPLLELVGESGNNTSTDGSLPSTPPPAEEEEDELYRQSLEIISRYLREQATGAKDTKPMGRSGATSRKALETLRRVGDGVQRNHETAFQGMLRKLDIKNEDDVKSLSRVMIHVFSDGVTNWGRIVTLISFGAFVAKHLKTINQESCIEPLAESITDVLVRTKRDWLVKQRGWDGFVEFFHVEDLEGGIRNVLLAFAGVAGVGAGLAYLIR
[MCL-1]-[compound of formula (I)]-[CRBN/DDB1] complex, sequence (Q96SW2 whole entry): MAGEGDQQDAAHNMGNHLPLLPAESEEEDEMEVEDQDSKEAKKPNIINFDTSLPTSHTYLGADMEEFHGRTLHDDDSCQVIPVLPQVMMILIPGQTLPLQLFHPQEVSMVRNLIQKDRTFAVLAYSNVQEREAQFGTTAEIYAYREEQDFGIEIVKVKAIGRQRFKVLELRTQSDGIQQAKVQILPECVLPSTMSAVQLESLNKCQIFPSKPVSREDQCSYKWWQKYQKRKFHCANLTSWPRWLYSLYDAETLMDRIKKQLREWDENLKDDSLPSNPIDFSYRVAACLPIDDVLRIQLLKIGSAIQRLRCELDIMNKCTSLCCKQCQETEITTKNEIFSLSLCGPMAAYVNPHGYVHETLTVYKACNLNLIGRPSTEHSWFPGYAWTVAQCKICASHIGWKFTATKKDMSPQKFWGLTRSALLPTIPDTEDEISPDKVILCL
[MCL-1]-[compound of formula (I)]-[CRBN/DDB1] complex, sequence (Q16531 whole entry partner): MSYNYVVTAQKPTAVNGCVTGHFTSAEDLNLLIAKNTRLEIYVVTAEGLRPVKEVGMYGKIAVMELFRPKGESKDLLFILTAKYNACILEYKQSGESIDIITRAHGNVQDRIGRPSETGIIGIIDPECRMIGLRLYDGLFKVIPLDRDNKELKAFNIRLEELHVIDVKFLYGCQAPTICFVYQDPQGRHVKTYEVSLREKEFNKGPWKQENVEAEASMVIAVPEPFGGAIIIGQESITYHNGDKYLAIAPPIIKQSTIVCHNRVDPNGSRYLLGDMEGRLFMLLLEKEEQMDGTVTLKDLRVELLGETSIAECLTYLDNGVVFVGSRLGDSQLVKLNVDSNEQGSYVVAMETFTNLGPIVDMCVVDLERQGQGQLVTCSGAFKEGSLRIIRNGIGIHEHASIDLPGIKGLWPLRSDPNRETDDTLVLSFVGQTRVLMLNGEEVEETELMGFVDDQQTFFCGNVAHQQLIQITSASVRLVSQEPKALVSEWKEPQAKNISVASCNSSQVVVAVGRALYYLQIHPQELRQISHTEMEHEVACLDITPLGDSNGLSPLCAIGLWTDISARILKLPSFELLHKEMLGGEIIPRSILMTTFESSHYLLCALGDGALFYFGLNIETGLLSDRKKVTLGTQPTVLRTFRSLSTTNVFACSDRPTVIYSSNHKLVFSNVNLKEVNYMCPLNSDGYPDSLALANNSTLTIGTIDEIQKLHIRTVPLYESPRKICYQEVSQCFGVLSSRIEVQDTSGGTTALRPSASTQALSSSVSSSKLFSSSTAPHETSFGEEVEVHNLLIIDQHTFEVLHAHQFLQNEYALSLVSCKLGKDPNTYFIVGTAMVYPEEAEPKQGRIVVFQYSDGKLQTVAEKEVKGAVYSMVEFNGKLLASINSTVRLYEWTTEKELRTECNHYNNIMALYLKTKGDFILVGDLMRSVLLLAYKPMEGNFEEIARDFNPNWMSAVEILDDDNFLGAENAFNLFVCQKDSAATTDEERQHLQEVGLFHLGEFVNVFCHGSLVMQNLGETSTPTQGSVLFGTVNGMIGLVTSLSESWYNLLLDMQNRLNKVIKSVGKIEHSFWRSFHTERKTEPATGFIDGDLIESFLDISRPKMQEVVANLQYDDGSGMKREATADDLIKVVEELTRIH
MCL-1 protein, sequence (Q07820 whole entry): as the sequence (Q07820 whole entry) above

Take `Cc1nn(C)c(C)c1-c1c(Cl)ccc2c(CCCOc3cccc4cc(F)ccc34)c(C(=O)O)n(CCN3CCN(C(=O)COc4cccc5c4CN(C4CCC(=O)NC4=O)C5=O)CC3)c12` (atropisomer, axis not shown; (Ra)) [Compound 294, (Ra)-6-Chloro-1-(2-(4-(2-((2-(2,6-dioxopiperidin-3-yl)-1-oxoisoindolin-4-yl)oxy)acetyl)piperazin-1-yl)ethyl)-3-(3-((6-fluoronaphthalen-1-yl)oxy)propyl)-7-(1,3,5-trimethyl-1H-pyrazol-4-yl)-1H-indole-2-carboxylic acid]: the “AlphaLISA dose response Average pEC50 by molecule” value in experiment [1] is over 7. Also, the “Average pIC50 by molecule MV-4-11” value with MV-4-11 cells (24 hours incubation) is on record as at least 7.5. For the same compound, in the experiment with DMS 114 cells, the “Average pIC50 by molecule DMS 114” value is reported as at least 6.0. For the same compound, in the experiment on ARH-77 cells (24 hours incubation), the “Average pIC50 by molecule ARH-77” value is recorded as under 5.0.
Take `Cc1nn(C)c(C)c1-c1c(Cl)ccc2c(CCCOc3cccc4cc(F)ccc34)c(C(=O)O)n(CCN3CCN(C(=O)[C@H](C)Oc4cccc5c4C(=O)N([C@H]4CCC(=O)NC4=O)C5=O)CC3)c12` (single isomer, unassigned) [Compound 319]: in experiment [1], the EC50 is under 100 nM. The values for the IC50 with MV-4-11 cells, in the experiment on DMS 114 cells and with ARH-77 cells were at most 31.6 nM, at most 3.16 µM and over 10 µM, respectively.
`Cc1nn(C)c(C)c1-c1c(F)ccc2c(CCCOc3cccc4ccccc34)c(C(=O)O)n(CCN3CCN(C(=O)COc4cccc5c4C(=O)N(C4CCC(=O)NC4=O)C5=O)CC3)c12` (centres unmarked) [Compound 213, 1-{2-[4-(2-{[2-(2,6-dioxopiperidin-3-yl)-1,3-dioxo-2,3-dihydro-1H-isoindol-4-yl]oxy}acetyl)piperazin-1-yl]ethyl}-6-fluoro-3-[3-(naphthalen-1-yloxy)propyl]-7-(1,3,5-trimethyl-1H-pyrazol-4-yl)-1H-indole-2-carboxylic acid]: in experiment [1], the EC50 is under 100 nM. Moreover, the IC50 is at most 316 nM in the experiment with MV-4-11 cells and over 10 µM in the experiment on ARH-77 cells. The “Simple Western, % of protein reduction” value on MCL-1 protein is on record as at least 40%.
For the compound `Cc1nn(C)c(COc2ccc(N3CCN(S(=O)(=O)N(C)C)CC3)cc2)c1-c1cccc2c(CCCOc3cccc4ccccc34)c(C(=O)O)n(CCN3CCN(C(=O)COc4cccc5c4CN(C4CCC(=O)NC4=O)C5=O)CC3)c12` (centres unmarked) [Compound 249, 7-(5-((4-(4-(N,N-dimethylsulfamoyl)piperazin-1-yl)phenoxy)methyl)-1,3-dimethyl-1H-pyrazol-4-yl)-1-(2-(4-(2-((2-(2,6-dioxopiperidin-3-yl)-1-oxoisoindolin-4-yl)oxy)acetyl)piperazin-1-yl)ethyl)-3-(3-(naphthalen-1-yloxy)propyl)-1H-indole-2-carboxylic acid], in experiment [1], the EC50 is under 100 nM. The IC50 in the experiment with MV-4-11 cells is at most 1000 nM. For the same compound, the “Simple Western, % of protein reduction” value at MCL-1 protein is reported as at least 20%.
Regarding `Cc1nn(C)c(C)c1-c1c(Cl)ccc2c(CCCOc3cccc4cc(F)ccc34)c(C(=O)O)n(CCN3CCN(C(=O)Cn4c(C)nc5c(C(=O)NC6CCC(=O)NC6=O)cc(N)cc54)CC3)c12` (centres unmarked) [Compound 275, 1-{2-[4-(2-{6-Amino-4-[(2,6-dioxopiperidin-3-yl)carbamoyl]-2-methyl-1H-1,3-benzodiazol-1-yl}acetyl)piperazin-1-yl]ethyl}-6-chloro-3-{3-[(6-fluoronaphthalen-1-yl)oxy]propyl}-7-(1,3,5-trimethyl-1H-pyrazol-4-yl)-1H-indole-2-carboxylic acid], the EC50 in experiment [1] is under 100 nM. The IC50 with MV-4-11 cells was at most 100 nM; in the experiment with DMS 114 cells it was at most 3.16 µM; with ARH-77 cells, over 10 µM.
`COc1cc(C(=O)NC2CCC(=O)NC2=O)c2nc(C)n(CC(=O)N3CCN(CCn4c(C(=O)O)c(CCCOc5cccc6cc(F)ccc56)c5ccc(Cl)c(-c6c(C)nn(C)c6C)c54)CC3)c2c1` (centres unmarked) [Compound 277, 6-Chloro-1-{2-[4-(2-{4-[(2,6-dioxopiperidin-3-yl)carbamoyl]-6-methoxy-2-methyl-1H-1,3-benzodiazol-1-yl}acetyl)piperazin-1-yl]ethyl}-3-{3-[(6-fluoronaphthalen-1-yl)oxy]propyl}-7-(1,3,5-trimethyl-1H-pyrazol-4-yl)-1H-indole-2-carboxylic acid]: the EC50 in experiment [1] is under 100 nM. In addition, the IC50 with MV-4-11 cells is at most 100 nM; in the experiment with DMS 114 cells it was at most 3.16 µM; in the experiment with ARH-77 cells it was over 10 µM.
The like results for `Cc1nn(C)c(C)c1-c1c(Cl)ccc2c(CCCOc3cccc4cc(F)ccc34)c(C(=O)O)n(CCN3CCN(C(=O)Cn4c(C)nc5c(C(=O)NC6CCC(=O)NC6=O)cc(F)cc54)CC3)c12` (centres unmarked) [Compound 278, 6-Chloro-1-{2-[4-(2-{4-[(2,6-dioxopiperidin-3-yl)carbamoyl]-6-fluoro-2-methyl-1H-1,3-benzodiazol-1-yl}acetyl)piperazin-1-yl]ethyl}-3-{3-[(6-fluoronaphthalen-1-yl)oxy]propyl}-7-(1,3,5-trimethyl-1H-pyrazol-4-yl)-1H-indole-2-carboxylic acid] were, in that order, under 100 nM, at most 100 nM, at most 3.16 µM and over 10 µM.
The like results for `Cc1nn(C)c(C)c1-c1c(Cl)ccc2c(CCCOc3cccc4cc(F)ccc34)c(C(=O)O)n(CC[N+]3([O-])CCN(C(=O)COc4cccc5c4CN(C4CCC(=O)NC4=O)C5=O)CC3)c12` (centres unmarked) [Compound 298, 1-(2-(2-Carboxy-6-chloro-3-(3-((6-fluoronaphthalen-1-yl)oxy)propyl)-7-(1,3,5-trimethyl-1H-pyrazol-4-yl)-1H-indol-1-yl)ethyl)-4-(2-((2-(2,6-dioxopiperidin-3-yl)-1-oxoisoindolin-4-yl)oxy)acetyl)piperazine 1-oxide] were, in that order, under 10 nM, at most 100 nM, at most 1 µM and over 10 µM.
The like results for `Cc1nn(C)c(C)c1-c1c(Cl)ccc2c(CCCOc3cccc4cc(F)ccc34)c(C(=O)O)n(CCN3CCN(C(=O)COc4c(F)ccc5c4CN(C4CCC(=O)NC4=O)C5=O)CC3)c12` (centres unmarked) [Compound 342, 6-Chloro-1-(2-(4-(2-((2-(2,6-dioxopiperidin-3-yl)-5-fluoro-1-oxoisoindolin-4-yl)oxy)acetyl)piperazin-1-yl)ethyl)-3-(3-((6-fluoronaphthalen-1-yl)oxy)propyl)-7-(1,3,5-trimethyl-1H-pyrazol-4-yl)-1H-indole-2-carboxylic acid] were, in that order, under 100 nM, at most 31.6 nM, at most 1 µM and over 10 µM.
